Measurements taken from publication PMC10960024, “Diindoles produced from commensal microbiota metabolites function as endogenous CAR/Nr1i3 ligands” (Nature Communications, 2024).

What was measured:
[1] = Liver histology (H&E); format: in vivo
Method: 12–15 week-old C57BL/6 J mice were obtained from Jackson Laboratories and were housed on a standard 12 h light/dark cycle. Nr1i3^−/− mice with C57BL/6 J background were obtained from David Moore’s lab (PMID: 11057673) at Baylor College of Medicine, and used at 13–26 weeks of age. Wild-type male, female and Nr1i3^−/− male mice were used in this study, due to known sex-specific CAR activities. Mice were housed in groups of 2–5 mice per cage on a standard 12 h light/dark cycle and fed with rodent chow diet (Inotiv, Teklad rodent diet 2918). Temperature was maintained at 21 °C with a range of 21–24 °C and humidity at 16–51%. National Institute of Health guidelines for the care and use of laboratory animals were followed with all experiments performed as directed by the Institutional Animal Care and Use Committee at the University of Illinois, Urbana-Champaign (UIUC, IACUC protocol: 22183). Mice were acclimatized to the UIUC mouse facility for 2 weeks prior to experiments. DIM and DIE were dissolved in 5% DMSO in corn oil and injected intraperitoneally at 25 mg/kg once daily for three days. After 4 h of the third injection, mice were sacrificed to collect serum, livers and intestines. TCPOBOP was dissolved in corn oil and injected intraperitoneally at 3 mg/kg once and the livers collected after 3 days for further studies. When used to block CAR activity, 100 mg/kg androstenol was injected intraperitoneally 15 min prior to the first DIM or DIE treatment. RNA from mice livers was isolated using TRIzol (Invitrogen) reagent using the manufacturer’s instructions. 3–5 µg of RNA was used to synthesize cDNA with random primers (NEBioLabs) and Maxima Reverse Transcriptase kits (Thermo Fisher Scientific). cDNA was further diluted, and 50 ng was used for SYBR green (Thermo Fisher Scientific) based qRT-PCR. Relative gene expression was calculated by the delta Ct method and normalized to 36b4 levels as loading controls. qPCR primers for gene expression analysis are listed in Supplementary Table 3. […]

[2] = molecular target: T1, GAL4-hCAR LBD (Homo sapiens, UniProt Q14994); assay: HEK293T GAL4-hCAR dual transfection reporter assay with PK11195 (antagonist displacement); format: cell-based; settings: read-out: HEK293 GAL4-hCAR EC50
T1 construct: chimeric yeast GAL4 DBD fused to an hCAR LBD; expressed in transfected cells; host or cells: HEK293T (ATCC, CRL-3216)
T1 sequence (Q14994 109-352 limits assumed): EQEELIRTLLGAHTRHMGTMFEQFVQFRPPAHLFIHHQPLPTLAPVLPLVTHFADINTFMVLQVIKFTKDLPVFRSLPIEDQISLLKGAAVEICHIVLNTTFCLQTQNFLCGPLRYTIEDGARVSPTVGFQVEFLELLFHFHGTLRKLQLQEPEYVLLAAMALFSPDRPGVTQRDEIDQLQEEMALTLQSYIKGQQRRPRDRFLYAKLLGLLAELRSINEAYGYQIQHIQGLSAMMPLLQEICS
From the text: The GAL4-hCAR, UAS-Luc, pcDNA-GAL4, pGL4-Renilla-Luc and pGEM plasmids were generously provided by Dr. David Mangelsdorf. The GAL4-hCAR plasmid encodes a constitutively expressed chimeric yeast GAL4 DBD fused to an hCAR LBD. The UAS-Luc plasmid encodes a Firefly luciferase reporter under the control of a GAL4 response element. The pcDNA plasmid encodes a constitutively expressed GAL4 DBD and was used as a control vector to determine non-specific luminescence in all HEK293T cellular reporter assays. The pGL4-Renilla-Luc plasmid encodes a constitutively expressed Renilla luciferase reporter and was used as a transfection control in the HEK293T cellular reporter assays.
HEK293T cells (ATCC, CRL-3216) were seeded at a density of 40,000 cells per well in white flat-bottom 96-well microplates (Greiner CellStar, 655073) in Dulbecco’s Modified Eagle Medium (DMEM) (2.5 g/l glucose) supplemented with 10% stripped fetal bovine serum with 100 units/ml of penicillin and incubated for 24 h at 37 °C. Transfection was carried out using 0.3 µL/well of Lipofectamine 2000 (Thermo Fisher Scientific, 11668019). Cells were transfected with 10 ng/well of either pcDNA or GAL4-hCAR, 50 ng/well of UAS-Luc, 5 ng/well of pGL4-Renilla-Luc, and 85 ng/well of pGEM for a total of 150 ng/well of DNA. […] Cells were incubated for 16-hours to allow build-up of luciferase and then processed using the Dual-Glo Luciferase Assay System (Promega, E2940) as per the manufacturer’s instructions. Incubations were performed in four technical replicates.

[3] = molecular target: T2, His-tagged CAR-LBD-SRC1 fusion protein (Homo sapiens, UniProt Q14994); assay: Isothermal titration calorimetry (ITC); format: binding; settings: 25 °C; ligand 50 μM; mean of two independent experiments
T2 construct: The human CAR LBD (Lys^108 – Ser^352) was amplified by PCR from cDNA; HIS6; made in house; host or cells: E. coli BL21(DE3)
T2 sequence (Q14994 108-352): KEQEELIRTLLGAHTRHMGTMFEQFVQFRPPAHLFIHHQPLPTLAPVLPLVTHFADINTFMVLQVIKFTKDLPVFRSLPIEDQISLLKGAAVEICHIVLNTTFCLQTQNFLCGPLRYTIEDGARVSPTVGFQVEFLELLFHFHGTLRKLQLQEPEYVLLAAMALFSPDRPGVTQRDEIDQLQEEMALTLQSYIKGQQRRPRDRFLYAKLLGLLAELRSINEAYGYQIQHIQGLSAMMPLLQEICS
Method: Purified hCAR-SRC1 protein (200–250 µM) was dissolved in 120 μL of PBS and supplemented with 0.5% DMSO. All experiments were performed in a MicroCal Auto-iTC200 instrument (Malvern Panalytical, Marlvern, United Kingdom) at 25 °C. Ligands were used at a concentration of 50 μM. Protein was titrated into cells in a series of 19 injections (injection 1 = 0.4 µL, injection 2–19 = 2 µL) 180 s apart. Control experiments performed by injection of the potein into […] yielded insignificant heats of dilution, and heat responses were subtracted. Integrated heat effects were analyzed using Microcal Origin 7 software (Malvern Instruments).

[4] = molecular target: T3, GST-hCAR-LBD (Homo sapiens, UniProt Q14994); assay: LanthaScreen TR-FRET PGC1α coactivator recruitment assay; format: biochemical
T3 construct: GST-hCAR-LBD (5 nM), terbium-labeled anti-GST antibody (5 nM); purchased Invitrogen A15141
T3 sequence (Q14994 109-352 limits assumed): T1 sequence (Q14994 109-352 limits assumed)
Method: LanthaScreen^TM TR-FRET hCAR coactivator assays were performed according to manufacturer’s instructions (Invitrogen, A15141). Test compounds were incubated for 2 h at room temperature with GST-hCAR-LBD (5 nM), terbium-labeled anti-GST antibody (5 nM), and Fluorescein-PGC1α coactivator peptide (125 nM). Incubations were performed in four technical replicates. TR-FRET emissions were measured using a Tecan Infinite F200 Fluorescence Microplate Reader. Results were expressed as the ratio of fluorescence intensity at 520 nm (fluorescein emission excited by terbium emissions) and 495 nm (terbium emissions).

SMILES | liver histology (H&E) findings ([1]; mouse, in vivo) | EC50 [2] | Kd [3] | liver histology (H&E) findings ([1]; after treatment) | PGC1α cofactor recruitment [4]
c1ccc2c(Cc3c[nH]c4ccccc34)c[nH]c2c1 [DIM, diindolylmethane] | no increase in hepatocyte size, cytoplasmic swelling, obvious damage or inflammation | 1.74 µM | 3.9 µM |  | 
CC(c1c[nH]c2ccccc12)c1c[nH]c2ccccc12 [DIE, 3,3’-diindolylethane] |  | 0.72 µM | 0.25 µM | no increase in hepatocyte size, cytoplasmic swelling, obvious damage or inflammation | does not
